Source: patent publication US9604969B2, “Pyrimidin-4-yl)oxy)-1h-indole-1-carboxamide derivatives and use thereof” (NOVARTIS AG, priority 2013, dated 2017)
Structures can show the parent of a compound that is named as a salt.

What was measured:
[1] = type: physicochemical
Text: Crystalline form B of the HCl salt of N-(1-methyl-5-(trifluoromethyl)-1H-pyrazol-3-yl)-5-((6-((methylamino)methyl)pyrimidin-4-yl)oxy)-1H-indole-1-carboxamide was obtained using the same procedure as in Example 5 above.

[2] = Control incubations for chemical stability in incubation media; type: physicochemical; conditions: 10 μmol/L, 37° C., incubation media in the absence of hepatocytes or liver microsomes
Protocol: (§1) To check the chemical stability of [^14C]N-(1-methyl-5-(trifluoromethyl)-1H-pyrazol-3-yl)-5-(6-((methylamino)methyl)pyrimidin-4-yloxy)-1H-indole-1-carboxamide under the incubation conditions, the compound was incubated at a concentration of 10 μmol/L in HepatoZYME without hepatocytes. A second series of control incubations was performed with hepatocytes of all species in the absence of the test compound to investigate the effect of the latter on the viability. These experiments were performed in a 12×6 mL MultiWell™ plate (Art. 393503, Beckton Dickinson).
Microsomal incubations for metabolite profiles were performed at 10 μmol/L of [^14C]N-(1-methyl-5-(trifluoromethyl)-1H-pyrazol-3-yl)-5-(6-((methylamino)methyl)pyrimidin-4-yloxy)-1H-indole-1-carboxamide (approx. 50% radiolabeled) with one time point investigated (60 min). Incubations were performed at 37° C. in 0.1 mol/L sodium phosphate buffer pH 7.4. The final concentrations in the incubation cocktail were: 4 mmol/L UDPGA (Sigma-Aldrich), 1 mmol/L β-NADPH (Sigma-Aldrich), 5 mmol/L MgCl2, and 60 μg alamethicin (Sigma-Aldrich) per mg microsomal protein. The system was left to incubate for 10 min before adding the test compound to allow the pore formation with the alamethicin. […]

rabbit hepatocytes = experiment: Hepatocyte viability during incubation (Guava ViaCount); type: cell-based; conditions: 10 μmol/L, percent viable cells relative to total cells, controls without compound 4-21%
Protocol: (§2) After thawing the cryopreserved hepatocytes, the viable cells were enriched by centrifugation in HepatoZYME cell culture medium (Gibco Invitrogen). For this purpose, the cells were added to 45 mL of a 37° C. warm HepatoZYME, and centrifuged at room temperature, at 50 g for 5 min. The supernatant containing dead cells was discarded and the cells in the pellet were re-suspended in HepatoZYME.
(§3) The viability of the re-suspended hepatocytes was determined by a Guava EasyCyte™ Mini system using the ViaCount® assay as described by the supplier (Guava Technologies, Hayward, Calif., USA). After cell counting, the cell concentration was adjusted to approx. 1·10^6 viable cells/mL by adding HepatoZYME. Subsequently, the incubations were started by adding [^14C]N-(1-methyl-5-(trifluoromethyl)-1H-pyrazol-3-yl)-5-(6-((methylamino)methyl)pyrimidin-4-yloxy)-1H-indole-1-carboxamide and non-labeled N-(1-methyl-5-(trifluoromethyl)-1H-pyrazol-3-yl)-5-(6-((methylamino)methyl)pyrimidin-4-yloxy)-1H-indole-1-carboxamide as a solution in DMSO. The final concentration of DMSO in the incubations was 0.1% (v/v).
as §1
(§4) The incubations were performed at 37° C. under a humidified atmosphere of 95% relative humidity and 5% CO2 in a Heraeus incubator/cytoperm (Kendro Laboratory Products AG, Zürich, Switzerland). During the incubations, the plates and flasks were shaken at 300 strokes per minute. The viability of the hepatocytes was determined after 6 h (end of incubation).

rat hepatocytes = experiment: as above; type: cell-based; conditions: 10 μmol/L, percent viable cells relative to total cells, controls without compound 4-21%
Protocol: as §2, §3, §1, §4

monkey hepatocytes = experiment: as above; type: cell-based; conditions: 10 μmol/L, percent viable cells relative to total cells, controls without compound 4-21%
Protocol: as §2, §3, §1, §4

human hepatocytes = experiment: as above; type: cell-based; conditions: 10 μmol/L, percent viable cells relative to total cells, controls without compound 4-21%
Protocol: as §2, §3, §1, §4

SMILES	Stability of crystalline form [1]	Chemical stability under the incubation conditions [2]	Viability at 6 h (rabbit hepatocytes) [%]	Viability at 6 h (rat hepatocytes) [%]	Viability at 6 h (monkey hepatocytes) [%]	Viability at 6 h (human hepatocytes) [%]
CNCc1cc(Oc2ccc3c(ccn3C(=O)Nc3cc(C(F)(F)F)n(C)n3)c2)ncn1 [Form B, N-(1-methyl-5-(trifluoromethyl)-1H-pyrazol-3-yl)-5-((6-((methylamino)methyl)pyrimidin-4-yl)oxy)-1H-indole-1-carboxamide (HCl Salt) Form B]	transient form that converts back to Form A	–	–	–	–	–
CNCc1cc(Oc2ccc3c(ccn3C(=O)Nc3cc(C(F)(F)F)n(C)n3)c2)ncn1 [N-(1-methyl-5-(trifluoromethyl)-1H-pyrazol-3-yl)-5-((6-((methylamino)methyl)pyrimidin-4-yl)oxy)-1H-indole-1-carboxamide]	–	confirmed the stability of the compound	8	22	42	25
